We go through twelve molecules from ChEMBL document CHEMBL1125842, “Synthesis and anticonvulsant activity of 2-iminohydantoins” (J Med Chem, 1991).

Calls of active or inactive are those of the source. The rule behind the calls is not given here. Bounds are passed on as bounds.

In series [1] the test system is Mus musculus. Put plainly: Anticonvulsant activity was measured from mES test by delivering the drug intraperitoneally after 0.5 hr. The class given is functional. The conditions noted are these: ip.
The test system of series [2] is Mus musculus. Put plainly: Anticonvulsant activity was measured from scMET test by delivering the drug intraperitoneally after 0.5 hr. The class given is functional. Conditions: ip.
The nature of series [3]: Neurotoxicity was determined from the rotarod ataxia test for the compound by the intraperitoneal administration. Conditions: mouse, in vivo, ip. It counts as toxicity, organism-based.
Series [4] relates to Mus musculus. Put plainly: ED50 was evaluated from scMET test in mice by delivering intraperitoneally and the value was determined at peak time effect or peak neurologic effect. The conditions noted are these: ip. It counts as functional.
The test system of series [5] is Mus musculus. Put plainly: ED50 was evaluated from MES test in mice by delivering intraperitoneally and the value was determined at peak time effect or peak neurologic effect. It counts as functional. Conditions: ip.
Series [6] is described as follows: Protective index was determined as ratio of TD50 to ED50(MES method). The class given is functional.
The nature of series [7]: Protective index was determined as ratio of TD50 to ED50(scMET method). It counts as functional.
Series [8] is filed under the species Mus musculus. Put plainly: animal or person. The conditions noted are these: ip.
The species entered for series [9] is Mus musculus.
For series [10], the species on record is Mus musculus. This is another data set of the same source.
Description: ED50 was evaluated from scMET test in mice by delivering intraperitoneally and the value was determined at peak time effect or peak neurologic effect; NA-Not active
Series [11] deals with Mus musculus. Put plainly: Anticonvulsant activity was measured from mES test by delivering the drug intraperitoneally after 0.5 hr; NA-Not active. It counts as functional, organism-based.

In general, ED50 refers to the dose that gives a 50% effect, or the effect in half of the subjects. For `NC1=NC(=O)CN1C(=O)OCc1ccccc1`, in [1], it took a dose of 459 mg/kg to reach the 50% effect level (ED50).
In turn, `CC(C)C[C@@H]1N=C(N)NC1=O` displayed an ED50 in series [2] of more than 300 mg/kg.
For the molecule `NC1=NC(=O)[C@H](Cc2ccccc2)N1C(=O)OCc1ccccc1`, the values for the ED50 in series [1] and in series [2] were 213 mg/kg and more than 1000 mg/kg, respectively.
In series [3], `CC(C)C[C@H]1C(=O)N=C(N)N1C(=O)OCc1ccccc1` displayed a TD50 of 350 mg/kg. Moreover, the ED50 in series [1] was 44.5 mg/kg; in series [4], 141 mg/kg; in series [2], 92.8 mg/kg; in [5], 98.6 mg/kg. Further, the figures for the PI in [6] and in series [7] were 3.5 and 2.5, respectively.
Consider `NC1=NC(=O)[C@H](Cc2ccccc2)N1`, for which the ED50 was 97.8 mg/kg in [1] and more than 1000 mg/kg in series [2].
For the molecule `CC(C)C[C@@H]1C(=O)N=C(N)N1C(=O)OCc1ccccc1`, the ED50 in series [2] was 547 mg/kg.
With `CCC1(C)CC(=O)NC1=O` (stereo not given) [ETHOSUXIMIDE], the TD50 in series [8] worked out at 441 mg/kg. The values for the ED50 in series [4] and in series [5] were 130 mg/kg and more than 1000 mg/kg, respectively.
For the molecule `CCC1(c2ccccc2)NC(=O)N(C)C1=O` (stereo not given) [MEPHENYTOIN], the ED50 is 31 mg/kg in series [4] and 61 mg/kg in series [5].
`NC(=O)NC(=O)Cc1ccccc1` [PHENACEMIDE] showed an ED50 in series [5] of 87 mg/kg. Also, the PI in [6] was found to be 4.8; in series [7] it was 3.6.
With `CCC1(c2ccccc2)C(=O)NC(=O)NC1=O` [PHENOBARBITAL], the TD50 in series [8] came to 69 mg/kg. The ED50 in [4] was 13.2 mg/kg; in [5] it was 21.8 mg/kg.
Molecule `O=C1NC(=O)C(c2ccccc2)(c2ccccc2)N1` [PHENYTOIN] came in with an ED50 in [1] of 2.3 mg/kg. The ED50 result in series [9] and in series [10] was “inactive” in each case.
Consider `O=C1NC(=S)NC1(c1ccccc1)c1ccccc1` [THIOPHENYTOIN], for which it took a dose of 1340 mg/kg to reach the 50% effect level in series [2] (ED50). The ED50 result in [11] is “inactive”.
